Data on one compound can be found in ChEMBL document CHEMBL4041544, “Discovery of new selective glucocorticoid receptor agonist leads” (Bioorg Med Chem Lett, 2017).

Series [1] concerns Rattus norvegicus. The series can be described thus: Anti-inflammatory activity in Brown Norway rat assessed as inhibition of TMA-induced ear edema at 30 mg/kg, po relative to control. Type of series: functional.
In the next series the target is T1, Androgen receptor (Homo sapiens, UniProt P10275).
T1 sequence (P10275 whole entry): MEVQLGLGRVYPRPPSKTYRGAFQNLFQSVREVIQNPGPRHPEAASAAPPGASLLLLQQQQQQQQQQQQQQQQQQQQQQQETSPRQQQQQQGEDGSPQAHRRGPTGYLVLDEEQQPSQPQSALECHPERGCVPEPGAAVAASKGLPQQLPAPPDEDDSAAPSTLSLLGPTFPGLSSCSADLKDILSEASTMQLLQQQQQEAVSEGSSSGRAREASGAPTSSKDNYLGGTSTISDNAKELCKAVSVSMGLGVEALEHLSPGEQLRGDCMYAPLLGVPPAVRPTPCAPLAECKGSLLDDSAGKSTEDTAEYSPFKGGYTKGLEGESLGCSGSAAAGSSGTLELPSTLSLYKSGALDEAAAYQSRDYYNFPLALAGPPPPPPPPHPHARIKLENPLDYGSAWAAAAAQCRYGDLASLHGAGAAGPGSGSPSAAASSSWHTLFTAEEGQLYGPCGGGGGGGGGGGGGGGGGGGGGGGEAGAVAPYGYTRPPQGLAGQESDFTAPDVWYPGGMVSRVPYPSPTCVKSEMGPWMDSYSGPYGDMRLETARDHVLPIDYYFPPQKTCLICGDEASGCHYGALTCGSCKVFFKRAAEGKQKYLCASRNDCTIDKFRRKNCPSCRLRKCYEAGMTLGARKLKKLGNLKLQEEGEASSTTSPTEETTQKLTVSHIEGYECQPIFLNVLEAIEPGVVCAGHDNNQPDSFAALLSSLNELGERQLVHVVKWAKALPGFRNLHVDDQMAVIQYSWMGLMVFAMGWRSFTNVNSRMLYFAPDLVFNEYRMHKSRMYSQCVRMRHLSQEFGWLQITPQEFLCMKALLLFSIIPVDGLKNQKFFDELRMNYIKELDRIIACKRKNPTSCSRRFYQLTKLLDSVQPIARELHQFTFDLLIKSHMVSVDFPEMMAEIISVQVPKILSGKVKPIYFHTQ
The series can be described thus: Binding affinity to recombinant human androgen receptor expressed in baculovirus infected sf9 cells.

Series [2] in a line: Volume of distribution at steady state in rat at 1.25 mg/kg, iv administered as bolus dose. Type of series: ADME, organism-based. The note with it: in vivo, read-out: Vdss.
In series [3] the target is T2, Glucocorticoid receptor (Homo sapiens, UniProt P04150).
T2 sequence (P04150 whole entry): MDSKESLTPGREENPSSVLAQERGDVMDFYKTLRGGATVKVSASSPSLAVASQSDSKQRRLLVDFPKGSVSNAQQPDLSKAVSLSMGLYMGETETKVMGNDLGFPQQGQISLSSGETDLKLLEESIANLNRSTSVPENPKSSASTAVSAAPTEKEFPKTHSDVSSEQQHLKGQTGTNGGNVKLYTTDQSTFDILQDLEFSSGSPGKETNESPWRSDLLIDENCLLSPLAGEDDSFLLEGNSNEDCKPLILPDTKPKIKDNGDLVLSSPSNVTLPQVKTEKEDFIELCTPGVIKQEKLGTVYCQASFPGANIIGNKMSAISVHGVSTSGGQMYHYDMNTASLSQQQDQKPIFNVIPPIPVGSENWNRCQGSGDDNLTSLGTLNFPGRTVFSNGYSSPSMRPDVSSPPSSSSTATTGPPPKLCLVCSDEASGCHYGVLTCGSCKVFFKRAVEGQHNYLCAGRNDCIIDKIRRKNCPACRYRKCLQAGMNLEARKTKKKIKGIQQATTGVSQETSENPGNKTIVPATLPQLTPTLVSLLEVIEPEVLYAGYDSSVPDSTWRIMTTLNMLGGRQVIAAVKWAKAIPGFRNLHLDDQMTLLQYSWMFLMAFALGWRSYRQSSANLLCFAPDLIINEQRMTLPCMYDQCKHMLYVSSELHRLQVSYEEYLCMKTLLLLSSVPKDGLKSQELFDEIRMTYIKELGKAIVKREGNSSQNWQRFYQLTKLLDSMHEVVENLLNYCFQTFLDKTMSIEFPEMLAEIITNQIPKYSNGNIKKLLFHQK
As to the kind of experiment: Binding affinity to recombinant human glucocorticoid receptor expressed in baculovirus infected sf9 cells.

Series [4] concerns Rattus norvegicus. As to the kind of experiment: Anti-inflammatory activity in Wistar rat assessed as inhibition of croton oil-induced ear edema at 30 mg/kg, po relative to control. Type of series: functional.
The target in series [5] is T2, Glucocorticoid receptor. The series can be described thus: Transrepression activity at glucocorticoid receptorin human HeLa cells assessed as inhibition of TPA-induced collagenase promoter activity by luciferase reporter gene assay. The series is classed as cell-based. (In general: Reporter assays use an easily measured gene product as a stand-in for the process of interest.)

The nature of series [6]: Lipophilicity, log P of the compound. The series is classed as physicochemical. As to conditions: octanol/water.
Series [7] has as its system Rattus norvegicus. The series can be described thus: Anti-inflammatory activity in po dosed Wistar rat assessed as inhibition of croton oil-induced ear edema. Type of series: functional.
The nature of series [8]: Half life in rat at 1.25 mg/kg, iv administered as bolus dose. The note with it: in vivo. The series is classed as ADME, organism-based.

The IC50 is the concentration that inhibits the measured activity by half. For orientation: logP means the decadic logarithm of the partition coefficient of the neutral form, usually between octanol and water. In general, ED50 refers to the midpoint of the dose-response relation. By half-life is commonly meant how long it takes for the measured level to halve. A high value points to slow decline.

Turning to `CC[C@@H]1C[C@](O)(C(F)(F)F)[C@@H](Nc2cc(F)cc3nc(C)ncc23)c2ccc(F)c(O)c21`, the Imax stood at 55% in the series with Rattus norvegicus [1] and 124% with Rattus norvegicus [4]. Besides, the IC50 on Androgen receptor is more than 1000 nM; at Glucocorticoid receptor [3], 126 nM; on Glucocorticoid receptor [5], 6.31 nM. For the same compound, in [2], the Vd is 11 L/kg. The same compound showed a log partition coefficient (logP) in series [6] of 4. For the same compound, the 50% effective dose (ED50) in the series on Rattus norvegicus [7] is 1.4 mg/kg. This compound also showed a half-life in series [8] of 5.8 h.
